Data published in ChEMBL document CHEMBL1136188, “1H-Pyrazolo-[3,4-c]cyclophepta[1,2-c]thiophenes: a unique structural class of dopamine D4 selective ligands” (Bioorg Med Chem Lett, 2003).

Tests used:
D(4) dopamine receptor [1] = molecular target: T1, D(4) dopamine receptor (Homo sapiens, UniProt P21917); assay: Binding affinity to recombinant human dopamine receptor D4
T1 sequence (P21917 whole entry): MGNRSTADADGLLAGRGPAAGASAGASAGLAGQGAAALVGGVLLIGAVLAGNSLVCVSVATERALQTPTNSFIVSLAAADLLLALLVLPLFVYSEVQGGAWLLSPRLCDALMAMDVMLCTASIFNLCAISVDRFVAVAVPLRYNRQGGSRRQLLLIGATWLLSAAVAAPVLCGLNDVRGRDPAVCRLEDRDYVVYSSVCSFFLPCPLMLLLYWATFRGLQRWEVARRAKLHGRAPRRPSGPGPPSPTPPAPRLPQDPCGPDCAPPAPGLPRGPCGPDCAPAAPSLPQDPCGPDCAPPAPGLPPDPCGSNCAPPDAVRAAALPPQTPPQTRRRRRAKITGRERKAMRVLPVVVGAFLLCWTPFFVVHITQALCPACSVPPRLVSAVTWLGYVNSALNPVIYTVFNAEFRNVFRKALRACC

D(2) dopamine receptor = D(2) dopamine receptor (Homo sapiens, UniProt P14416); assay: Binding affinity towards cloned human Dopamine receptor D2 was determined
[2] = molecular target: T2, D(4) dopamine receptor (Homo sapiens) (UniProt P21917); assay: Association constant towards cloned human dopamine D4 receptor was determined
T2 sequence (whole entry): T1 sequence (P21917 whole entry)

[3] = Half life in human microsomes; type: ADME, Microsome
[4] = molecular target: T3, 5-hydroxytryptamine receptor 1A (Homo sapiens, UniProt P08908); assay: Binding affinity towards cloned human 5-hydroxytryptamine 1A receptor was determined
T3 sequence (P08908 whole entry): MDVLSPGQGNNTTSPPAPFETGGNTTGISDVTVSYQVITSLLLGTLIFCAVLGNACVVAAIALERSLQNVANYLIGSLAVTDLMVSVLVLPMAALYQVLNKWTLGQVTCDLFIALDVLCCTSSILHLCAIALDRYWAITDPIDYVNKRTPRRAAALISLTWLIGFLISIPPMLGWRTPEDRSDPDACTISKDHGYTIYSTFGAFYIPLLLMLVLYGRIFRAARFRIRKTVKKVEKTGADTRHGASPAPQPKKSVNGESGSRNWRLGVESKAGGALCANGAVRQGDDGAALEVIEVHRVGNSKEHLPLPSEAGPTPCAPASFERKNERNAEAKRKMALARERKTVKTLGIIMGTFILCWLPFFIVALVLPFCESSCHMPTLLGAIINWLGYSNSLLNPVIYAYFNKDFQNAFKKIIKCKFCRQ

[5] = molecular target: Serotonin 2 (5-HT2) receptor (Homo sapiens, UniProt P41595+P28223+P28335); assay: Binding affinity towards cloned human 5-hydroxytryptamine 2 receptor was determined; type: protein assay
[6] = mLogP was determined; type: physicochemical; conditions: octanol/water; read-out: mLog P
D(1A) dopamine receptor = D(1A) dopamine receptor (Homo sapiens, UniProt P21728); assay: Binding affinity towards Dopamine receptor D1 was determined
[7] = molecular target: T4, Adrenergic receptor alpha-2 (Homo sapiens, UniProt P08913+P18825+P18089); assay: Binding affinity towards cloned human Alpha-2 adrenergic receptor was determined; type: protein assay
T4 sequence (P08913 whole entry): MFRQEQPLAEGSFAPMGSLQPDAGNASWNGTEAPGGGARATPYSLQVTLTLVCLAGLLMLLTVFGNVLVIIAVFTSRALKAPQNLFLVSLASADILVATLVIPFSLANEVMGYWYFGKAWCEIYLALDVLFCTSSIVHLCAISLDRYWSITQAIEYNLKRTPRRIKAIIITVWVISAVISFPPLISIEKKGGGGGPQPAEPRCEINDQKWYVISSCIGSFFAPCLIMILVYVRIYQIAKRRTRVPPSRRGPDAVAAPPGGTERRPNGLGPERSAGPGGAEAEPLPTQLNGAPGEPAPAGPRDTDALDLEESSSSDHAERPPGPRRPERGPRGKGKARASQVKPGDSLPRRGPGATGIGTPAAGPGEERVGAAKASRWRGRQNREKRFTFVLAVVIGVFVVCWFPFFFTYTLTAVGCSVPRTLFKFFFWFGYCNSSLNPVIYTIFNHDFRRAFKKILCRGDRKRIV
T4 sequence (P18825 whole entry): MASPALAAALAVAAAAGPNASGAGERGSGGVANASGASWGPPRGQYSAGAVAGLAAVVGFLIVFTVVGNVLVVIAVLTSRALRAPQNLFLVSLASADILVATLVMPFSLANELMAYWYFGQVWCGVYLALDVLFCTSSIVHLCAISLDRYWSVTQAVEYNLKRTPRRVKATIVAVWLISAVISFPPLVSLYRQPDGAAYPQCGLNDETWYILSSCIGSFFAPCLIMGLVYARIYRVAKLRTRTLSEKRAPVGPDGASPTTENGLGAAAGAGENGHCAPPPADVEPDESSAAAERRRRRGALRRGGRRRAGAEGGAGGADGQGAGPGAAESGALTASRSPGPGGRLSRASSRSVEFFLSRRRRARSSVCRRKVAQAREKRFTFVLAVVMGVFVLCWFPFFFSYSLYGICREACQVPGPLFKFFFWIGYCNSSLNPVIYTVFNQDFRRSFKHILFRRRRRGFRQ
T4 sequence (P18089 whole entry): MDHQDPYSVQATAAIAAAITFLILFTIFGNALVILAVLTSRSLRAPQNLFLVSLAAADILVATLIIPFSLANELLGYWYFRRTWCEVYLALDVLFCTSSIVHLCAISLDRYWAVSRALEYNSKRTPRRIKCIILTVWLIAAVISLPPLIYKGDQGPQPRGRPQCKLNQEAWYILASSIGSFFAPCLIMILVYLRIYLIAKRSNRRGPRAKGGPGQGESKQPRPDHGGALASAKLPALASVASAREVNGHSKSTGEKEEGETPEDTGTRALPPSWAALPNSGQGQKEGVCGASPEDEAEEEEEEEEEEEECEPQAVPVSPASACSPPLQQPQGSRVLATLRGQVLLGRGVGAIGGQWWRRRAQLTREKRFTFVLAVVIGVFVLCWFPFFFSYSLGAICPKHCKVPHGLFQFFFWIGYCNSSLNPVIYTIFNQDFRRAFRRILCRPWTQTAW

D(1B) dopamine receptor = D(1B) dopamine receptor (Homo sapiens, UniProt P21918); assay: Binding affinity towards cloned human Dopamine receptor D5 was determined
D(4) dopamine receptor [8] = molecular target: T1, D(4) dopamine receptor; assay: Antagonistic activity against human Dopamine receptor D4.2 using [35S]GTP-gamma-S binding assay
D(3) dopamine receptor = D(3) dopamine receptor (Homo sapiens, UniProt P35462); assay: Binding affinity towards cloned human Dopamine receptor D3 was determined
[9] = molecular target: T5, Adrenergic receptor alpha-1 (Homo sapiens, UniProt P35348+P25100+P35368); assay: Binding affinity towards cloned human Alpha-1 adrenergic receptor was determined; type: protein assay
T5 sequence (P35348 whole entry): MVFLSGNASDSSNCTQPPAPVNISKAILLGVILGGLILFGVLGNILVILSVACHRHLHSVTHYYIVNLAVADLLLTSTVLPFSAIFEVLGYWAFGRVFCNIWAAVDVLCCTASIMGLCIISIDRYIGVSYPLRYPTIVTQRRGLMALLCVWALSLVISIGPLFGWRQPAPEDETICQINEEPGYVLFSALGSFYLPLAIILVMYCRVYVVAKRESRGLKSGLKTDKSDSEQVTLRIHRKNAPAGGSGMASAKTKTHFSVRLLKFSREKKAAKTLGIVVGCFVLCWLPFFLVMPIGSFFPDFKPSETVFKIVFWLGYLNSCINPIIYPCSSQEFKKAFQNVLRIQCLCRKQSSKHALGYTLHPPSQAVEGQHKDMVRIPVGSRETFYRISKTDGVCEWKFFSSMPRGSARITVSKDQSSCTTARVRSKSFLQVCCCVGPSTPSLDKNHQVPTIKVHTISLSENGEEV
T5 sequence (P25100 whole entry): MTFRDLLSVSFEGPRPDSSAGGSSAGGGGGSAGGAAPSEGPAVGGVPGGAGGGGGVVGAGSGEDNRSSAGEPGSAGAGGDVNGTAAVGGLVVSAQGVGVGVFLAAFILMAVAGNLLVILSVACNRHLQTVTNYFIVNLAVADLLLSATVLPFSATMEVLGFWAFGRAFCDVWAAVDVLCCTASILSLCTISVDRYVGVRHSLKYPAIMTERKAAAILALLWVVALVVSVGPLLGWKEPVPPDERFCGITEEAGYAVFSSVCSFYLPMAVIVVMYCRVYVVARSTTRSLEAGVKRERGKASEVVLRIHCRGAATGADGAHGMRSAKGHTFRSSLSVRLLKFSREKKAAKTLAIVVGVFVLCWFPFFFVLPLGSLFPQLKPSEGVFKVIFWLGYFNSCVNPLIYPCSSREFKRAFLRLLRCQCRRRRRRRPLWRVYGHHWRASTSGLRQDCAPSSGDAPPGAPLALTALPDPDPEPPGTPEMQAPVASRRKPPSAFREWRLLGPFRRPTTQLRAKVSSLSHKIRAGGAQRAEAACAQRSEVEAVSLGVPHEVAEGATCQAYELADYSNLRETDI
T5 sequence (P35368 whole entry): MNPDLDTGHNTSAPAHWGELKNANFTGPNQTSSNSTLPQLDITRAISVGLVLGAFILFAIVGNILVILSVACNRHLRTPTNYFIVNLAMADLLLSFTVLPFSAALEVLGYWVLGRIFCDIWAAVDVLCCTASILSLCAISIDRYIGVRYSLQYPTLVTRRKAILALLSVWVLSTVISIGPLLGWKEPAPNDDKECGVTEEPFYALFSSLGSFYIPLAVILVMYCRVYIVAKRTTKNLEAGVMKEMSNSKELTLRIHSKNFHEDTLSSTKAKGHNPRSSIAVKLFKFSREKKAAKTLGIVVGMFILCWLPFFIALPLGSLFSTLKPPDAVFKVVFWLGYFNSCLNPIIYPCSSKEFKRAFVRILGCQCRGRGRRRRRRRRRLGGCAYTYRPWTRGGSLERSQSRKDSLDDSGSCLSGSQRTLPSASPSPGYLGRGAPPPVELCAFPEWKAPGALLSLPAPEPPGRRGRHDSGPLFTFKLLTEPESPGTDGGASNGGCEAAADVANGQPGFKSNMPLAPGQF

D(2) dopamine receptor, sequence (P14416 whole entry): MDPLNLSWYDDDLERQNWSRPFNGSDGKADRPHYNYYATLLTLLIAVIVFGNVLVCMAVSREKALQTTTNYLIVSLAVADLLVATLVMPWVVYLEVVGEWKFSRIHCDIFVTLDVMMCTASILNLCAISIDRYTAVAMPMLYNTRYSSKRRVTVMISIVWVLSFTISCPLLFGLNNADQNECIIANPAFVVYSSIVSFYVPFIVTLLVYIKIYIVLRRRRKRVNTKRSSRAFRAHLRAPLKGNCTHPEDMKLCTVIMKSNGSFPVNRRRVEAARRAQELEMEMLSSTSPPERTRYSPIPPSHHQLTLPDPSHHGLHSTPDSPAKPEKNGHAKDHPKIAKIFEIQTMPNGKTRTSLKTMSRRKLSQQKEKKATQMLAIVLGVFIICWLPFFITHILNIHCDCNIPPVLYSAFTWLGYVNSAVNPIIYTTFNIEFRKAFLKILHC
D(1B) dopamine receptor, sequence (P21918 whole entry): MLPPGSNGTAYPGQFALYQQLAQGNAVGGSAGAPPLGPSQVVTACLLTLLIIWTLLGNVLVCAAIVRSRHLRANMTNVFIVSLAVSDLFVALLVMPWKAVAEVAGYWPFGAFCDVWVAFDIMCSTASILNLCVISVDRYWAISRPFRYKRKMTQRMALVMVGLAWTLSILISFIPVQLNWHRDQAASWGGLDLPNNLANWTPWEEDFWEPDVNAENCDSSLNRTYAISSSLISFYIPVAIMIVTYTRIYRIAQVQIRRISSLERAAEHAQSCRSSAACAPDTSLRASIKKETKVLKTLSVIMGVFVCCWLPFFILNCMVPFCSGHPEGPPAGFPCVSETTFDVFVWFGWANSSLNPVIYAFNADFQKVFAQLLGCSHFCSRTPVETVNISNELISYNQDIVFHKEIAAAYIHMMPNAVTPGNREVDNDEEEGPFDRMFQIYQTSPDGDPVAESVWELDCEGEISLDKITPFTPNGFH
D(3) dopamine receptor, sequence (P35462 whole entry): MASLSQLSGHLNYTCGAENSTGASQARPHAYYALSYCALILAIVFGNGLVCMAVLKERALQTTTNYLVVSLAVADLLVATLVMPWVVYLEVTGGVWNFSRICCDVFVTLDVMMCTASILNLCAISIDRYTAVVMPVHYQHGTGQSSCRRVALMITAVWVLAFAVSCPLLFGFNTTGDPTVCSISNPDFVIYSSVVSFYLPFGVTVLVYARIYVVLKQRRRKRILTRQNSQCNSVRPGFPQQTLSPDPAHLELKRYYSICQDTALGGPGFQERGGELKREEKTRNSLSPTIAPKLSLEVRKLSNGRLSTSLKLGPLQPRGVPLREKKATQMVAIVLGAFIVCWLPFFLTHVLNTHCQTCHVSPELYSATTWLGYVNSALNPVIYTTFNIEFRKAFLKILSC
D(1A) dopamine receptor, sequence (P21728 whole entry): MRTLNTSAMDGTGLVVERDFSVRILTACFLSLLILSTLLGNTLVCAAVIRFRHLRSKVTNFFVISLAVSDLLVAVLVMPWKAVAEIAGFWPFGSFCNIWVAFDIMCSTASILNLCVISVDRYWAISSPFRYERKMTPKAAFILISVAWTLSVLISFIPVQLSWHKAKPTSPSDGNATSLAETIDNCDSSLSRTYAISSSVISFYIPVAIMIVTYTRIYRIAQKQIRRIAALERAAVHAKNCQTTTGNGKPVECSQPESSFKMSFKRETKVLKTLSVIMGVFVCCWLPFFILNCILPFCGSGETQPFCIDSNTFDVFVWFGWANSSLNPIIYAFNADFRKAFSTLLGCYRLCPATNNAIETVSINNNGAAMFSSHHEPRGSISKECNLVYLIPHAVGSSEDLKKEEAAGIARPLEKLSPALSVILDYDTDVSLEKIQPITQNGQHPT

| Ki (D(4) dopamine receptor [1]) [nM] | Ki (D(2) dopamine receptor) [nM] | Structure (SMILES) | other results |
| --- | --- | --- | --- |
| 97 | 885 | CCCn1ncc2c1-c1c(C)sc(C)c1CCC2 |  |
| 228 | 641 | Cc1sc(C)c2c1CCCc1cn(C)nc1-2 |  |
| 22 | 402 | CCn1ncc2c1-c1c(C)sc(C)c1CCC2 |  |
| 2 | 176 | Cc1sc(C)c2c1CCCc1cnn(C)c1-2 |  |
| 26 | 462 | Cc1sc(C)c2c1CCc1cnn(C)c1-2 |  |
| 3550 | > 10000 | CCCn1ncc2c1-c1c(Cl)sc(Cl)c1CCC2 |  |
| 1580 | > 10000 | Cc1sc(C)c2c1CCCc1cnn(-c3ccccc3)c1-2 |  |
| 1290 | > 10000 | Cc1sc(C)c2c1CCCc1ncn(C)c1-2 |  |
| 138 | 555 | Cc1sc(C)c2c1CCCc1cnn(C(C)C)c1-2 |  |

Further lines, the molecule ahead of its results:

| Structure (SMILES) | Ki (D(4) dopamine receptor [1]) [nM] | Ki (D(2) dopamine receptor) [nM] | other results |
| --- | --- | --- | --- |
| Clc1sc(Cl)c2c1CCCc1c[nH]nc1-2 | 169 | 534 |  |
| Cc1sc(C)c2c1CCCc1c-2n[nH]c1CN(C)C | 2560 |  |  |
| Cc1sc(C)c2c1SCc1cnn(C)c1-2 | 3 | 111 | pKa [2]: 3.06; half-life [3]: < 1 min |
| Cc1oc(C)c2c1CCCc1cnn(C)c1-2 | 11 | 28 |  |
| Cc1sc(C)c2c1CCCc1nnc(C)n1-2 | 462 | > 10000 |  |
| Cc1sc(C)c2c1CCCc1nccn1-2 | 301 | > 10000 |  |
| CC(C)n1ncc2c1-c1c(Cl)sc(Cl)c1CCC2 | 1560 | > 10000 |  |
| Cn1ncc2c1-c1ccccc1CCC2 | > 10000 | > 10000 |  |
| Cc1sc(C)c2c1CN(C)Cc1c[nH]nc1-2 | > 10000 |  |  |
| Cc1ccc(C)c2c1CCCc1c[nH]nc1-2 | 425 | > 10000 |  |
| Cc1oc(C)c2c1CCCc1c[nH]nc1-2 | 275 |  |  |
| Cc1sc(C)c2c1CCc1c[nH]nc1-2 | 170 |  |  |
| Clc1sc(Cl)c2c1CCCc1cnn(Cc3ccccc3)c1-2 | > 10000 | > 10000 |  |
| Cc1sc(C)c2c1CCc1cn(C)nc1-2 | 2870 |  |  |
| Cn1ncc2c1-c1c(Cl)sc(Cl)c1CCC2 | 14 | 416 |  |
| Cc1sc(C)c2c1CCCc1nncn1-2 | 4320 | > 10000 |  |
| Cc1sc(C)c2c1CCCc1c[nH]nc1-2 | 12 | 2070 | Ki [4]: > 1000 nM; Ki [5]: 2087 nM; logP [6]: 2.48; Ki (D(1A) dopamine receptor): > 10 µM; Ki [7]: > 7.8 µM; Ki (D(1B) dopamine receptor): > 10 µM; half-life [3]: 6 min; EC50 (D(4) dopamine receptor [8]): 9 nM; Ki (D(3) dopamine receptor): > 10 µM; Ki [9]: > 10 µM |
| CCn1ncc2c1-c1c(Cl)sc(Cl)c1CCC2 | 168 | 489 |  |
| Cc1sc(C)c2c1CC(C)(C)Cc1c[nH]nc1-2 | 1300 | > 10000 |  |
| c1ccc2c(c1)CCCc1c[nH]nc1-2 | > 10000 | > 10000 |  |
| Cn1cc2c(n1)-c1ccccc1CCC2 | 507 | > 10000 |  |
